Here are results for 22 molecules from patent US10821104B2, “Five-membered heterocyclic amides WNT pathway inhibitor” (SUZHOU SINOVENT PHARMACEUTICALS CO., LTD., priority 2015, dated 2020).

Test [1] relates to Wnt/β-catenin reporter (Super 8×TOPFLASH) in HEK293 cells cocultured with L-Wnt3a-expressing cells. The test is described as follows: 293T/TOPLUC-Wnt3a luciferase reporter gene assay. The test is classed as cell-based. The following applies: read-out: IC50, inhibition of Wnt/β-catenin reporter gene readout. The protocol:
In this assay, HEK293 cells harboring a luciferase-based Wnt/β-catenin reporter (Super 8×TOPFLASH) were cocultured with L-Wnt3a-expressing cells. 293T/TOPLUC-Wnt3a were incubated with small molecules for 24 h. The level of the Luciferase reporter gene was used as an indicator for Wnt ligand-driven, LEF/TCF-dependent transcriptional activities. IC50 is defined as the compound concentration at which 50% of luciferase reporter activity is inhibited.
Results: REX-P compounds were investigated on CrownBio Cell plateform to assay the activity of inhibiting Wnt/β-catenin reporter activity, results are shown in Table 3.

Another test concerns zebrafish axis formation. The test is described as follows: Effect of compounds on axis formation of zebrafish (zebrafish phenotype screening). The test is classed as in vivo, Zebrafish Danio rerio. The following applies: embryos treated from 3 h to 48 h post fertilization, concentration at which 50% of axis formation is inhibited, read-out: IC50, inhibition of axis formation of zebrafish. As for the experimental part:
Method: Zebrafish embryos were collected after natural spawning. Embryos were treated from the 16 cell stage (3 hours post fertilization) with different concentration series 100 μM˜0.001 μM of the compound in 1% DMSO/fish water or with DMSO equivalent. The zebrafish were placed in a 6-well microplate at a density of 20 zebrafish per well with 3 mL of fish water. Zebrafish were incubated at 28.5° C. in the dark until 48 h post fertilization, then anesthetized, and imaged under a dissecting stereomicroscope installed with a high-speed video camera (JVC, Japan). Quantitative length of axis was performed with NIS-Elements D 3.1 soft and pixels data were expressed as mean±SEM. The effect of compound on axis formation of zebrafish was calculated based on the following formula: Inhibition on axis growth (%)=[1−Pixel(compound)/Pixel(vehicle)]×100%
(§1) Inhibition curves were generated using GraphPad Prism 6.0 (GraphPad Software Inc., San Diego Calif.) and IC50 was determined with logistic regression.

In test [2] the test system is regeneration of zebrafish tailfin resected. The test is described as follows: Effect of compounds on tailfin regeneration of zebrafish (resected caudal fin). The test is classed as in vivo. As to conditions: Danio rerio; 3 d.p.f. zebrafish with resected caudal fins treated until 7 d.p.f.; read-out: IC50, inhibition of regeneration of zebrafish tailfin resected. As for the experimental part: Method: Three days post fertilization (d.p.f) zebrafish with resected caudal fins were placed in water containing 1% DMSO carrier or compounds (10 μM˜0.001 μM) until 7 d.p.f. The zebrafish were placed in a 6-well microplate at a density of 15 zebrafish per well with 3 mL of fish water. Zebrafish were incubated at 28.5° C. in the dark until 7 d.p.f., then anesthetized, and imaged under a dissecting stereomicroscope installed with a high-speed video camera (JVC, Japan). Quantitative length of regeneration of tailfin was performed and pixels data were expressed as mean±SEM. The effect of compound on regeneration of tailfin of zebrafish was calculated based on the following formula: Drug inhibition on regeneration of tailfin (%)=[1−Pixel(compound)/Pixel(vehicle)]×100%.
as §1

Where [3] appears, read: Homo sapiens, HEK293, 24 h incubation.

Like-named read-outs stand apart in the source and are kept apart here.

As to “5-(4-chlorophenyl)-N-((2′,3-dimethyl-[2,4′-bipyridin]-5-yl)methyl)thiazole-2-carboxamide [REX-P-13]”, the figures for the IC50 (in test [1] (24 h incubation); in the test with zebrafish axis formation) were above 1000 nM and above 10000 nM, respectively.
Consider `Cc1cc(-c2ncc(CC(=O)Nc3ccc(-c4cnccn4)cn3)cc2C)ccn1` [LGK-974, reference compound], for which the IC50 came out at 0.574 nM in test [1] (setting [3]), 583 nM with zebrafish axis formation (Danio rerio) and 462 nM in test [2].
Regarding `Cc1cc(-c2ncc(CNC(=O)c3cc(-c4ccccc4)nn3C)cc2C)ccn1` [REX-P-1, N-((2′,3-dimethyl-[2,4′-bipyridin]-5-yl)methyl)-1-methyl-3-phenyl-1H-pyrazole-5-carboxamide], the values for the IC50 (in test [1] (setting [3]); with zebrafish axis formation (Danio rerio)) were 92.6 nM and 29900 nM, respectively.
For the molecule `Cc1cc(-c2ncc(CNC(=O)c3cc(-c4ccccc4)[nH]n3)cc2C)ccn1` [REX-P-2, N-((2′,3-dimethyl-[2,4′-bipyridin]-5-yl)methyl)-5-phenyl-1H-pyrazole-3-carboxamide], the results for the IC50 (in test [1] (setting [3]); with zebrafish axis formation (Danio rerio); in test [2]) were 1.76 nM, 8230 nM and 3910 nM, respectively.
`Cc1cc(-c2ncc(CNC(=O)c3cnc(-c4ccccc4)s3)cc2C)ccn1` [REX-P-3, N-((2′,3-dimethyl-[2,4′-bipyridin]-5-yl)methyl)-2-phenylthiazole-5-carboxamide]: the IC50 is below 0.1 nM in test [1] (setting [3]), 144 nM in the test with zebrafish axis formation (Danio rerio) and 84 nM in test [2].
With `Cc1cc(-c2ncc(CNC(=O)c3ncc(-c4ccccc4)s3)cc2C)ccn1` [REX-P-4, N-((2′,3-dimethyl-[2,4′-bipyridin]-5-yl)methyl)-5-phenylthiazole-2-carboxamide], the IC50 was below 0.1 nM in test [1] (setting [3]) and 36.9 nM in the test with zebrafish axis formation (Danio rerio).
As to `Cc1cc(-c2ncc(CNC(=O)c3csc(-c4ccccc4)n3)cc2C)ccn1` [REX-P-5, N-((2′,3-dimethyl-[2,4′-bipyridin]-5-yl)methyl)-2-phenylthiazole-4-carboxamide], the IC50 is above 1000 nM in test [1] (setting [3]) and above 40000 nM in the test on zebrafish axis formation (Danio rerio).
In the case of `Cc1cc(-c2ncc(CNC(=O)c3nc(-c4ccccc4)cs3)cc2C)ccn1` [REX-P-6, N-((2′,3-dimethyl-[2,4′-bipyridin]-5-yl)methyl)-4-phenylthiazole-2-carboxamide], the IC50 was above 1000 nM in test [1] (setting [3]) and above 100000 nM with zebrafish axis formation (Danio rerio).
As for `Cc1cc(-c2ncc(CNC(=O)c3nnc(-c4ccccc4)s3)cc2C)ccn1` [REX-P-8, N-((2′,3-dimethyl-[2,4′-bipyridin]-5-yl)methyl)-5-phenyl-1,3,4-thiadiazole-2-carboxamide], the IC50 came out at 1.92 nM in test [1] (setting [3]), 21 nM in the test on zebrafish axis formation (Danio rerio) and 27 nM in test [2].
`Cc1cc(-c2ncc(CNC(=O)c3cc(-c4ccccc4)n(C)n3)cc2C)ccn1` [REX-P-9, N-((2′,3-dimethyl-[2,4′-bipyridin]-5-yl)methyl)-1-methyl-5-phenyl-1H-pyrazole-3-carboxamide]: the IC50 in test [1] (setting [3]) was above 1000 nM; in the test with zebrafish axis formation (Danio rerio), above 20000 nM.
For `Cc1cc(-c2ncc(CNC(=O)c3ncc(-c4cccc(Cl)c4)s3)cc2C)ccn1` [REX-P-12, 5-(3-chlorophenyl)-N-((2′,3-dimethyl-[2,4′-bipyridin]-5-yl)methyl)thiazole-2-carboxamide], in that order: 9.16 nM and above 100000 nM.
On to `Cc1cc(-c2ncc(CNC(=O)c3cc(-c4ccccn4)[nH]n3)cc2C)ccn1` [REX-P-16, N-((2′,3-dimethyl-[2,4′-bipyridin]-5-yl)methyl)-5-(pyridin-2-yl)-1H-pyrazole-3-carboxamide], for which the IC50 in test [1] (setting [3]) is 16.8 nM; in the test on zebrafish axis formation (Danio rerio), above 10000 nM.
In the case of `Cc1cc(-c2ncc(CNC(=O)c3cnc(-c4cccc(Cl)c4)s3)cc2C)ccn1` [REX-P-22, 2-(3-chlorophenyl)-N-((2′,3-dimethyl-[2,4′-bipyridin]-5-yl)methyl)thiazole-5-carboxamide], the IC50 came out at 0.72 nM in test [1] (setting [3]), 178 nM in the test on zebrafish axis formation (Danio rerio) and 28 nM in test [2].
The corresponding values for `Cc1cc(-c2ncc(CNC(=O)c3nnc(-c4cccc(Cl)c4)s3)cc2C)ccn1` [REX-P-45, 5-(3-chlorophenyl)-N-((2′,3-dimethyl-[2,4′-bipyridin]-5-yl)methyl)-1,3,4-thiadiazole-2-carboxamide] are 0.31 nM, 14 nM and 23 nM.
For `Cc1cc(-c2ncc(CNC(=O)c3nnc(-c4cccc(F)c4)s3)cc2C)ccn1` [REX-P-46, N-((2′,3-dimethyl-[2,4′-bipyridin]-5-yl)methyl)-5-(3-fluorophenyl)-1,3,4-thiadiazole-2-carboxamide], in that order: 0.125 nM, 10 nM and 16 nM.
The corresponding values for `Cc1cc(-c2ncc(CNC(=O)c3nnc(-c4ccccn4)s3)cc2C)ccn1` [REX-P-47, N-((2′,3-dimethyl-[2,4′-bipyridin]-5-yl)methyl)-5-(pyridin-2-yl)-1,3,4-thiadiazole-2-carboxamide] are 0.673 nM, 163 nM and 207 nM.
In the case of `Cc1cc(-c2ncc(CNC(=O)c3nnc(-c4ncccc4F)s3)cc2C)ccn1` [REX-P-48, N-((2′,3-dimethyl-[2,4′-bipyridin]-5-yl)methyl)-5-(3-fluoropyridin-2-yl)-1,3,4-thiadiazole-2-carboxamide], the results for the IC50 (with zebrafish axis formation (Danio rerio); in test [2]) were 896 nM and 721 nM, respectively.
As to `Cc1cc(-c2ncc(CNC(=O)c3nnc(-c4cncc(F)c4)s3)cc2C)ccn1` [REX-P-49, N-((2′,3-dimethyl-[2,4′-bipyridin]-5-yl)methyl)-5-(5-fluoropyridin-3-yl)-1,3,4-thiadiazole-2-carboxamide], the results for the IC50 (in test [1] (setting [3]); in the test with zebrafish axis formation (Danio rerio); in test [2]) were 0.248 nM, 52 nM and 137 nM, respectively.
Consider `Cc1cc(-c2ncc(CNC(=O)c3nnc(-c4cccc(C)n4)s3)cc2C)ccn1` [REX-P-50, N-((2′,3-dimethyl-[2,4′-bipyridin]-5-yl)methyl)-5-(6-methylpyridin-2-yl)-1,3,4-thiadiazole-2-carboxamide], for which the IC50 in test [1] (setting [3]) was determined as 0.389 nM; in the test on zebrafish axis formation (Danio rerio) it was 64 nM; in test [2], 111 nM.
In the case of `Cc1cc(-c2ncc(CNC(=O)c3nnc(-c4ncccn4)s3)cc2C)ccn1` [REX-P-51, N-((2′,3-dimethyl-[2,4′-bipyridin]-5-yl)methyl)-5-(pyrimidin-2-yl)-1,3,4-thiadiazole-2-carboxamide], the IC50 with zebrafish axis formation (Danio rerio) is above 10000 nM.
As for `Cc1cc(-c2ncc(CNC(=O)c3nnc(-c4cnccn4)s3)cc2C)ccn1` [REX-P-52, N-((2′,3-dimethyl-[2,4′-bipyridin]-5-yl)methyl)-5-(pyrazin-2-yl)-1,3,4-thiadiazole-2-carboxamide], the IC50 in test [1] (setting [3]) turned out to be 1.38 nM; with zebrafish axis formation (Danio rerio), 640 nM; in test [2], 746 nM.
For the molecule `Cc1cc(-c2ncc(CNC(=O)c3nnc(-c4ncccc4C)s3)cc2C)ccn1` [REX-P-56, N-((2′,3-dimethyl-[2,4′-bipyridin]-5-yl)methyl)-5-(3-methylpyridin-2-yl)-1,3,4-thiadiazole-2-carboxamide], in the test on zebrafish axis formation (Danio rerio), the IC50 was determined as 62 nM.
